{
  "source": "patent US20240010681A1",
  "about": "“PEPTIDES AND METHODS OF USE” (REALTA LIFE SCIENCES, INC., priority 2020, published 2024)",
  "key": {"rat eye": {"test_system": "rat eye", "test": "Intravitreal safety study, slit lamp examination with modified MacDonald-Shadduck Ocular Grading", "format": "in vivo", "design": "key to Conjunctiva pathology score / Anterior Chamber pathology score / Iris pathology score / Cornea pathology score: 0: no pathology; 1: slight pathology; 2: moderate pathology; 3/4: severe pathology", "details": "for Anterior Chamber pathology score / Conjunctiva pathology score / Cornea pathology score / Iris pathology score: rats 1-4", "protocol": "Safety study. […] A saline control was administered to the left eye. For this procedure, animals were anesthetized with isoflurane and also received the topical anesthetic proparacaine. Additionally, animals received the topical antibiotic tobramycin after injection. Slit lamp examinations were performed at the indicated time points up to 72 hours post-injection and pathology graded using a modified MacDonald-Shadduck Ocular Grading system with the following scoring scale: 0, no pathology; 1, slight pathology; 2, moderate pathology; 3/4, severe pathology."}, "[1]": {"test_system": "OVA/LPS rat model of neutrophilic asthma", "test": "OVA/LPS rat model of neutrophilic asthma, leucocyte quantification in BALF", "details": "Day 24"}, "[2]": {"test": "Pharmacokinetics, metabolite profiles and excretion of [14C]-PIC1-dPEG24 after single IV dose", "format": "in vivo, rat", "details": "for Adjusted Peak Distribution (ROI %) in Rat Plasma: AUC0-24 hr pooled plasma, integrated together: M89/M160, M1444/M1701/M1573, M1288/M1217, M2244/M2357/M2470, M2768/PIC1-dPEG24; for estimated mean concentration within 0-24 hr in AUC0-24 hr pooled plasma: parent value = PIC1-dPEG24 and M2768 together", "protocol": "[…]. The six rats in Group 3 and Group 4 were further divided into two subgroups for serial blood collections at 10, 30 min and 1, 2, 3, 4, 6, 8, 24, and 48 hr. Blood was pooled by equal volume across animals at each time point, and aliquots (˜200 μL) of pooled blood were removed at each time point for total radioactivity, and the rest of blood samples were centrifuged to obtain plasma. Bile, urine, feces, and cage wash samples were collected up to 72 hr in bile duct cannulated (BDC) rats, and up to 168 hr in intact rats, and terminal blood samples were collected at the end of study (72 hr or 168 hr post-doses). The total radioactivity concentrations in the excreta, blood and plasma were determined by homogenization, combustion and/or liquid scintillation counting (LSC). The metabolite profiles and structure characterization were conducted in pooled plasma, urine, and bile samples using LC-UV/MS as well as radioactive detection. […].\nThe radioactive profiles of rat plasma samples for the low dose group and the high dose group were qualitatively similar."}, "[3]": {"details": "bolus IV 400 mg/kg; four hours after infusion; male Wistar rats"}, "two-hit ALI model": {"test_system": "two-hit ALI model", "test": "Lung histology (H&E) and ImageJ lung injury score in two-hit ALI rat model", "format": "in vivo", "protocol": "The inventors' previously developed two-hit ALI model is initiated by infusion of LPS (first hit) into Wistar rats followed 30 minutes later with transfusion of 30% incompatible erythrocytes (second hit) and sacrifice of the animals 4 hours later. […] Lungs were isolated from animals four hours after the second hit and tissues evaluated by H&E staining.\nTo determine the level of lung tissue protection by RLS-0071 in this model, grading of H&E sections for cell wall thickening for the different treatment groups was performed. Images of randomized microscopy fields were converted to black and white and quantified by ImageJ (NIH) analysis. The ratio of black to white pixels was then determined as a measure of lung damage: as lung damage increased, the alveolar walls thickened, shrinking the alveolar space (white space), resulting in a decrease in white pixels and increase in black pixels."}, "human neutrophils": {"test_system": "human neutrophils", "test": "Human neutrophil adhesion to glass slides with or without fibrinogen", "format": "cell-based", "details": "increasing concentrations, 2.5 hours", "protocol": "To ascertain whether the binding of PA-dPEG24 has an effect on the ability of neutrophils to adhere to surfaces in vitro, purified human neutrophils were incubated with increasing concentrations of PA-dPEG24, washed twice with PBS, placed on the glass slides, and then incubated in a humidified 37° C. incubator in the presence of 5% C02 for 2.5 hours. Slides were subsequently stained with DAPI (1:1000 in 2% BSA) followed by imaging at 20× by fluorescence microscopy. Quantification of the amount of cell staining was performed using ImageJ analysis (NIH). […] To ascertain if adherence of neutrophils was altered on glass slides pre-coated with fibrinogen, purified human neutrophils were incubated with increasing concentrations of PA-dPEG24, washed twice with PBS, placed on the fibrinogen-coated glass slides, and then incubated in a humidified 37° C. incubator in the presence of 5% C02 for 2.5 hours. Slides were subsequently stained with DAPI (1:1000 in 2% BSA) followed by imaging at 20× by fluorescence microscopy. Quantification of the amount of cell staining was performed using ImageJ analysis (NIH)."}, "ICAM-2/CD102": {"target": "ICAM-2/CD102 (Homo sapiens, UniProt P13598)", "sequence (P13598 25-275)": "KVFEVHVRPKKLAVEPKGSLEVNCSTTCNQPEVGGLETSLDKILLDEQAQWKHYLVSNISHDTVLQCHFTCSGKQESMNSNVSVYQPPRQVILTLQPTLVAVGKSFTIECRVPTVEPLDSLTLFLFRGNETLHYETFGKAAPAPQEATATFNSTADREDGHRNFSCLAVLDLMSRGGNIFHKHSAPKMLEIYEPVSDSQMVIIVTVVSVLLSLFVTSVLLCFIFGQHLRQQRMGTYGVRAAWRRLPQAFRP", "test": "ELISA-type plate binding assay, ICAM-2", "details": "1% gelatin/PBS buffer", "protocol": "To address this hypothesis, an ELISA-type binding assay was developed in which neutrophil ligands (LFA-1 and MAC-1/CR3) and […] cell ligands (ICAM-1/CD54 and ICAM-2/CD102) were bound to microtiter plates. Plates were then incubated with increasing amounts of PA-dPEG24 in 1% gelatin/PBS buffer probed with antibody to the peptide and developed."}, "[4]": {"details": "30 min after IVT 160 mg/ml in 5 microliters"}, "[5]": {"details": "2 hour after IVT 160 mg/ml in 5 microliters"}, "[6]": {"details": "24 hour after IVT 160 mg/ml in 5 microliters"}, "[7]": {"details": "48 hour after IVT 160 mg/ml in 5 microliters"}, "[8]": {"details": "72 hour after IVT 160 mg/ml in 5 microliters"}, "[9]": {"details": "Pre-IVT (baseline), eye assigned to RLS-0071"}},
  "data": [
    {"smiles": "CC[C@H](C)[C@H](N)C(=O)N[C@@H](C)C(=O)N[C@@H](CC(C)C)C(=O)N[C@H](C(=O)N[C@@H](CC(C)C)C(=O)N[C@@H](CCC(=O)O)C(=O)N1CCC[C@H]1C(=O)N[C@H](C(=O)N[C@@H](CS)C(=O)N[C@@H](CS)C(=O)N[C@@H](CCC(N)=O)C(=O)N[C@@H](CCC(=O)O)C(=O)N[C@@H](CCCNC(=N)N)C(=O)N[C@@H](C)C(=O)N[C@@H](C)C(=O)NCCOCCOCCOCCOCCOCCOCCOCCOCCOCCOCCOCCOCCOCCOCCOCCOCCOCCOCCOCCOCCOCCOCCOCCOCCC(=O)O)[C@@H](C)CC)[C@@H](C)CC", "note": "[RLS-0071]", "values": [
      {"measurement": "ocular toxicity by slit lamp after intravitreal injection", "setting": "rat eye; 160 mg/kg (maximal deliverable dose) as printed, all 4 animals, up to 72 hours", "value": "No RLS-0071 related toxicity was observed"},
      {"measurement": "Anterior Chamber pathology score", "setting": "rat eye; [4]", "value": 0},
      {"measurement": "Conjunctiva pathology score", "setting": "rat eye; [4]", "value": 0},
      {"measurement": "Cornea pathology score", "setting": "rat eye; [4]", "value": 0},
      {"measurement": "Iris pathology score", "setting": "rat eye; [4]", "value": 0},
      {"measurement": "Anterior Chamber pathology score", "setting": "rat eye; [5]", "value": 0},
      {"measurement": "Conjunctiva pathology score", "setting": "rat eye; [5]", "value": 0},
      {"measurement": "Cornea pathology score", "setting": "rat eye; [5]", "value": 0},
      {"measurement": "Iris pathology score", "setting": "rat eye; [5]", "value": 0},
      {"measurement": "Anterior Chamber pathology score", "setting": "rat eye; [6]", "value": 0},
      {"measurement": "Conjunctiva pathology score", "setting": "rat eye; [6]", "value": 0},
      {"measurement": "Cornea pathology score", "setting": "rat eye; [6]", "value": 0},
      {"measurement": "Iris pathology score", "setting": "rat eye; [6]", "value": 0},
      {"measurement": "Anterior Chamber pathology score", "setting": "rat eye; [7]", "value": 0},
      {"measurement": "Conjunctiva pathology score", "setting": "rat eye; [7]", "value": 0},
      {"measurement": "Cornea pathology score", "setting": "rat eye; [7]", "value": 0},
      {"measurement": "Iris pathology score", "setting": "rat eye; [7]", "value": 0},
      {"measurement": "Anterior Chamber pathology score", "setting": "rat eye; [8]", "value": 0},
      {"measurement": "Conjunctiva pathology score", "setting": "rat eye; [8]", "value": 0},
      {"measurement": "Cornea pathology score", "setting": "rat eye; [8]", "value": 0},
      {"measurement": "Iris pathology score", "setting": "rat eye; [8]", "value": 0},
      {"measurement": "Anterior Chamber pathology score", "setting": "rat eye; [9]", "value": 0},
      {"measurement": "Conjunctiva pathology score", "setting": "rat eye; [9]", "value": 0},
      {"measurement": "Cornea pathology score", "setting": "rat eye; [9]", "value": 0},
      {"measurement": "Iris pathology score", "setting": "rat eye; [9]", "value": 0},
      {"measurement": "neutrophil accumulation in the BALF", "setting": "[1]; prophylactic 160 mg/kg IV Days 21, 22, 23, P<0.03", "value": "significant reduction in neutrophil accumulation"},
      {"measurement": "neutrophils in the BALF", "setting": "[1]; rescue 160 mg/kg IV Days 22 and 23, P<0.1844", "value": "reduction in neutrophils but did not reach statistical significance"},
      {"measurement": "Adjusted Peak Distribution (ROI %) in Rat Plasma", "setting": "[2]; Group 3 (20 mg/kg IV)", "value": "about 12%"},
      {"measurement": "Adjusted Peak Distribution (ROI %) in Rat Plasma", "setting": "[2]; Group 4 (200 mg/kg IV)", "value": "~16", "unit": "%"},
      {"measurement": "estimated mean concentration within 0-24 hr in AUC0-24 hr pooled plasma", "setting": "[2]; high dose group (200 mg/kg IV)", "value": 2225, "unit": "ng Eq/g"},
      {"measurement": "estimated mean concentration within 0-24 hr in AUC0-24 hr pooled plasma", "setting": "[2]; low dose group (20 mg/kg IV)", "value": 187, "unit": "ng Eq/g"},
      {"measurement": "staining for peptide in kidney tissue", "setting": "[3]", "value": "dark staining on the glomerulus and tubules"},
      {"measurement": "staining for peptide in liver tissue", "setting": "[3]", "value": "discrete staining"},
      {"measurement": "lung injury score (ratio of black to white pixels)", "setting": "two-hit ALI model; 10 mg/kg prophylactic dose, p=0.002 vs untreated 2-hit animals", "value": "significant reduction in lung damage"},
      {"measurement": "lung injury score (ratio of black to white pixels)", "setting": "two-hit ALI model; 40 mg/kg prophylactic dose, p<0.001 vs untreated 2-hit animals", "value": "this effect was enhanced"},
      {"measurement": "lung damage by H&E histology", "setting": "two-hit ALI model; prophylactic 10, 40 or 160 mg/kg 2 minutes before incompatible erythrocyte transfusion, lungs 4 h after second hit", "value": "marked reduction in lung damage"},
      {"measurement": "lung tissue architecture by H&E histology", "setting": "two-hit ALI model; rescue 40 mg/kg at 0.5, 60, 90, 120 and 180 min after second hit", "value": "lung tissue architecture resembling that of sham animals"},
      {"measurement": "lung injury score (ratio of black to white pixels)", "setting": "two-hit ALI model; rescue 40 mg/kg at 0.5, 60, 90, 120 and 180 minutes after erythrocyte transfusion, all p<0.001", "value": "significant reduction in lung damage"},
      {"measurement": "neutrophil adherence to fibrinogen-coated glass slides", "setting": "human neutrophils; fibrinogen-coated glass", "value": "dose-dependently decreased neutrophil adherence"},
      {"measurement": "number of neutrophils adhered to glass slides", "setting": "human neutrophils; untreated glass", "value": "dose-dependently reduced the number of cells adhered to the slides"},
      {"measurement": "binding to ICAM-2", "setting": "ICAM-2/CD102", "value": "but not ICAM-2"}
    ]}
  ]
}
